Publication PMC6085350, “Small molecule inhibitors of RAS-effector protein interactions derived using an intracellular antibody fragment” (Nature Communications, 2018)

What was measured:
KRAS-GDP = test: waterLOGSY NMR binding to GDP form
Procedure: The waterLOGSY NMR method[35] was used to measure RAS ligand interaction. WaterLOGSY experiments were conducted at a ^1H frequency of 600 MHz using a Bruker Avance spectrometer equipped with a BBI probe. All experiments were conducted at 298 K, 3 mm diameter NMR tubes with a sample final volume of 200 µl was used in all experiments. Solutions were buffered using an H2O 10 mM PBS, 5 mM MgCl2 buffer corrected to pH 7.4. The sample preparation is exemplified as follows, the compound (10 µl of a […] solution in DMSO-d6) was added to an eppendorf before sequential addition of the H2O PBS buffer (163.6 µl), D2O (20 µl), and protein (6.4 µl, 311.8 µM). The resulting solution was spun to ensure full mixing and transferred to a 3 mm NMR tube before running the experiment. For a competition experiment using Y6-scFv or VH, the preparation was carried out in a similar manner; the compound (10 µl of a 10 mM solution in DMSO-d6) was added to an eppendorf before sequential addition of the H2O PBS buffer (146.4 µl), D2O (20 µl), protein (6.4 µl, 311.8 µM) and Y6-ScFv (17.2 µl, 116.6 µM) with a ratio of 5.5:1:1. The resulting solution was spun and transferred to a 3 mm NMR tube before the run. […]
Supplementary Figure 3: Abd-2 WaterLOGSY NMR with and without anti RAS-scFV Abd-2 was analyzed by waterLOGSY. […]

PDK1 = biological target: T1, PDK1 (Homo sapiens, UniProt O15530); test: Kinase panel (KinaseProfiler); type: biochemical; conditions: PDK1, 10μM
T1 construct: purchased Eurofins Pharma Discovery Services (KinaseProfiler)
T1 sequence (O15530 whole entry): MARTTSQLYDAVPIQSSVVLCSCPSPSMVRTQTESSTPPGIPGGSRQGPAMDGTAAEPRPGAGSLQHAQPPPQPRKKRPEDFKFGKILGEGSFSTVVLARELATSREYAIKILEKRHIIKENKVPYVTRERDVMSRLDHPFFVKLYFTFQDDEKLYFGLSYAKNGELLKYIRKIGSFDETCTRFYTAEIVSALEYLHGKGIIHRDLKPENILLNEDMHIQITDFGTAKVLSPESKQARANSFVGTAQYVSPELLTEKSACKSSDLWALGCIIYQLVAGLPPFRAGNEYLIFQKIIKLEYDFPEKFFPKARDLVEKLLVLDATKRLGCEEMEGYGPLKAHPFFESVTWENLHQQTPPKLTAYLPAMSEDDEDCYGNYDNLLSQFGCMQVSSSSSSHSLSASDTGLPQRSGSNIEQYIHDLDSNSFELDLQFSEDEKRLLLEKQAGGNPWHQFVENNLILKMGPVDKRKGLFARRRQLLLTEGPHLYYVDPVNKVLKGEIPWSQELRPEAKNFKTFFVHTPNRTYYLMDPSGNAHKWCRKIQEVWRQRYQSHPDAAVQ
Procedure: (§1) Experiments were performed by Eurofins Pharma Discovery Services. The KinaseProfiler™ assay protocol guide can be downloaded from their website: www.eurofins.com/discoveryservices. The guide contains information on the buffer conditions, substrate and reference inhibitor blank used for each kinase.
(§2) Supplementary Table 3. Assessment of potential interaction of Abd-7 with a human kinase
(§3) Kinase % kinase activity in
(§4) A panel of 14 Kinases (relevant to the RAS pathway) has been screened against Abd-7
(§5) (10μM) and the kinase activity was measured. […] of activity was observe for all
(§6) function of the selected and RAS relevant kinase proteins.

BRAF = biological target: T2, BRAF (Homo sapiens, UniProt P15056); test: Kinase panel (KinaseProfiler); type: biochemical; conditions: 10μM
T2 construct: purchased Eurofins Pharma Discovery Services (KinaseProfiler)
Procedure: as §1, §2, §3, §4, §5, §6

mTOR = biological target: T3, mTOR (Homo sapiens, UniProt P42345); test: Kinase panel (KinaseProfiler); type: biochemical; conditions: 10μM
T3 construct: purchased Eurofins Pharma Discovery Services (KinaseProfiler)
Procedure: as §1, §2, §3, §4, §5, §6

PKBα = biological target: T4, PKBα (Homo sapiens, UniProt P31749); test: Kinase panel (KinaseProfiler); type: biochemical; conditions: 10μM
T4 construct: purchased Eurofins Pharma Discovery Services (KinaseProfiler)
T4 sequence (P31749 whole entry): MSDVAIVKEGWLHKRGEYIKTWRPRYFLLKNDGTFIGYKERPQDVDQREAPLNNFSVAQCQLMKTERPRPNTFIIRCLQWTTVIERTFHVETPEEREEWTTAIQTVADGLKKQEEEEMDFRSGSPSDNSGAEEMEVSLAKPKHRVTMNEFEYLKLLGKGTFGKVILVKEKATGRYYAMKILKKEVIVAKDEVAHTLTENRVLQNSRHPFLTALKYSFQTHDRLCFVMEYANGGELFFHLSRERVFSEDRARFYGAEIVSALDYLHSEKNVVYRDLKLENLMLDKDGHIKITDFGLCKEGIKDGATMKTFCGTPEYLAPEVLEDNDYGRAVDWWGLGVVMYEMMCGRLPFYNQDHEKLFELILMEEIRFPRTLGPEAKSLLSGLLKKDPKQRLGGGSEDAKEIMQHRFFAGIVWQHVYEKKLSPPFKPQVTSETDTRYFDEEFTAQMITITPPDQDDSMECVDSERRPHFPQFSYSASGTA
Procedure: as §1, §2, §3, §4, §5, §6

MAPK1 = biological target: T5, MAPK1 (Homo sapiens, UniProt P27361); test: Kinase panel (KinaseProfiler); type: biochemical; conditions: MAPK1, 10μM
T5 construct: purchased Eurofins Pharma Discovery Services (KinaseProfiler)
T5 sequence (P27361 whole entry): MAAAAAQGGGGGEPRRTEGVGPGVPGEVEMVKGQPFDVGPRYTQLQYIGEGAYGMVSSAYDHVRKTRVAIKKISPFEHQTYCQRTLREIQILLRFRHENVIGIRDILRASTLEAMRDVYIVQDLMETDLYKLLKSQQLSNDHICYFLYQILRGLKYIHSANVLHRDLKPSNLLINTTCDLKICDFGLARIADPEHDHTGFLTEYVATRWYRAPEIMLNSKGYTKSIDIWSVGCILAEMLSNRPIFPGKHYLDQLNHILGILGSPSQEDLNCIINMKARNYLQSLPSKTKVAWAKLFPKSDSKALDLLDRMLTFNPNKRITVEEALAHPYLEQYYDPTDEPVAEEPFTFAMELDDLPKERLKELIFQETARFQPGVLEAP
Procedure: as §1, §2, §3, §4, §5, §6

PKBγ = biological target: T6, PKBγ (Homo sapiens, UniProt Q9Y243); test: Kinase panel (KinaseProfiler); type: biochemical; conditions: 10μM
T6 construct: purchased Eurofins Pharma Discovery Services (KinaseProfiler)
T6 sequence (Q9Y243 whole entry): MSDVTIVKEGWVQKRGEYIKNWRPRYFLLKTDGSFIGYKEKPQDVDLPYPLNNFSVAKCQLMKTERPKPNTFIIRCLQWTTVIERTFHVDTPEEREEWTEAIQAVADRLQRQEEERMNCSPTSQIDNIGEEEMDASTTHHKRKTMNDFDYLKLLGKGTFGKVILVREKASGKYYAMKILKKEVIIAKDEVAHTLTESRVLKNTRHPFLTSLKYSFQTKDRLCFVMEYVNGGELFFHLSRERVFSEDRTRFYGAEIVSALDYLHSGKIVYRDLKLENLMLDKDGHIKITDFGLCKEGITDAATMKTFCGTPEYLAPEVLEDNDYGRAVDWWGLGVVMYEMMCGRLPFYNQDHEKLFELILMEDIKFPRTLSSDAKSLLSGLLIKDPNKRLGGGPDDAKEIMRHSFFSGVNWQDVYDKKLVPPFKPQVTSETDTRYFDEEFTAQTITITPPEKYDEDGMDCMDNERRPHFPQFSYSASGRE
Procedure: as §1, §2, §3, §4, §5, §6

MAPK2 = biological target: T7, MAPK2 (Homo sapiens, UniProt P28482); test: Kinase panel (KinaseProfiler); type: biochemical; conditions: MAPK2, 10μM
T7 construct: purchased Eurofins Pharma Discovery Services (KinaseProfiler)
T7 sequence (P28482 whole entry): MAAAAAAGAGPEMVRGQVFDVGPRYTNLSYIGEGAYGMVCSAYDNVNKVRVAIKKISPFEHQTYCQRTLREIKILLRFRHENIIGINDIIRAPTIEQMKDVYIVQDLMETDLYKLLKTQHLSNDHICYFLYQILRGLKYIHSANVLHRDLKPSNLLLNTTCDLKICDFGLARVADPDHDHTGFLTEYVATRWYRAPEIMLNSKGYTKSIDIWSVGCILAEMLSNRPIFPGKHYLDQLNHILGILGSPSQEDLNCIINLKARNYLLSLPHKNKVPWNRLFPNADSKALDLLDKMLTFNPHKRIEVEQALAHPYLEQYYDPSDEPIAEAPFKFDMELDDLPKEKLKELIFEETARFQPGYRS
Procedure: as §1, §2, §3, §4, §5, §6

MEK2 = biological target: T8, MEK2 (Homo sapiens, UniProt P36507); test: Kinase panel (KinaseProfiler); type: biochemical; conditions: MEK2, 10μM
T8 construct: purchased Eurofins Pharma Discovery Services (KinaseProfiler)
T8 sequence (P36507 whole entry): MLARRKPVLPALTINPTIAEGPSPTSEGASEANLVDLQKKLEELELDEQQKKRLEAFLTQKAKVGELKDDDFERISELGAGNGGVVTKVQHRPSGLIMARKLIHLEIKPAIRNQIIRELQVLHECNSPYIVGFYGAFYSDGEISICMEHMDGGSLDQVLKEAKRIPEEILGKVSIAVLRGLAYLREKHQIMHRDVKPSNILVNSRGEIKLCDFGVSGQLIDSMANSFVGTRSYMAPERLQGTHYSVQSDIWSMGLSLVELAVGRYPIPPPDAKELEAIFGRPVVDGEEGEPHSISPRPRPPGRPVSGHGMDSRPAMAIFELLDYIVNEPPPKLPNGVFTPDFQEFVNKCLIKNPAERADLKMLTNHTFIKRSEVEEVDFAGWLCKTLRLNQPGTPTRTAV
Procedure: as §1, §2, §3, §4, §5, §6

PKBβ = biological target: T9, PKBβ (Homo sapiens, UniProt P31751); test: Kinase panel (KinaseProfiler); type: biochemical; conditions: 10μM
T9 construct: purchased Eurofins Pharma Discovery Services (KinaseProfiler)
T9 sequence (P31751 whole entry): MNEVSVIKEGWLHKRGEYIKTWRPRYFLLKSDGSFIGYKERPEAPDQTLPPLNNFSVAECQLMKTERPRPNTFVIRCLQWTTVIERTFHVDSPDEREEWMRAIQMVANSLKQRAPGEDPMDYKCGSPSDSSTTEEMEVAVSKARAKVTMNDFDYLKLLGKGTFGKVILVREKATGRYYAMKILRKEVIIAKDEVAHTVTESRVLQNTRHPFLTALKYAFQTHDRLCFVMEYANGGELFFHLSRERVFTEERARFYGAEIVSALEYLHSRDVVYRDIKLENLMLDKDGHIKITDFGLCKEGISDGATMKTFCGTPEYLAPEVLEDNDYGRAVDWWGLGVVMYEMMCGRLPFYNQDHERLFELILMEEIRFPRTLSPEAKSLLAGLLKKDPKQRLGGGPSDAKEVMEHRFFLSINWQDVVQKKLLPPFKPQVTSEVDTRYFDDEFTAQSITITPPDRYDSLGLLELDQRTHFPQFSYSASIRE
Procedure: as §1, §2, §3, §4, §5, §6

EGFR = biological target: T10, EGFR (Homo sapiens, UniProt P00533); test: Kinase panel (KinaseProfiler); type: biochemical; conditions: 10μM
T10 construct: purchased Eurofins Pharma Discovery Services (KinaseProfiler)
T10 sequence (P00533 25-1210): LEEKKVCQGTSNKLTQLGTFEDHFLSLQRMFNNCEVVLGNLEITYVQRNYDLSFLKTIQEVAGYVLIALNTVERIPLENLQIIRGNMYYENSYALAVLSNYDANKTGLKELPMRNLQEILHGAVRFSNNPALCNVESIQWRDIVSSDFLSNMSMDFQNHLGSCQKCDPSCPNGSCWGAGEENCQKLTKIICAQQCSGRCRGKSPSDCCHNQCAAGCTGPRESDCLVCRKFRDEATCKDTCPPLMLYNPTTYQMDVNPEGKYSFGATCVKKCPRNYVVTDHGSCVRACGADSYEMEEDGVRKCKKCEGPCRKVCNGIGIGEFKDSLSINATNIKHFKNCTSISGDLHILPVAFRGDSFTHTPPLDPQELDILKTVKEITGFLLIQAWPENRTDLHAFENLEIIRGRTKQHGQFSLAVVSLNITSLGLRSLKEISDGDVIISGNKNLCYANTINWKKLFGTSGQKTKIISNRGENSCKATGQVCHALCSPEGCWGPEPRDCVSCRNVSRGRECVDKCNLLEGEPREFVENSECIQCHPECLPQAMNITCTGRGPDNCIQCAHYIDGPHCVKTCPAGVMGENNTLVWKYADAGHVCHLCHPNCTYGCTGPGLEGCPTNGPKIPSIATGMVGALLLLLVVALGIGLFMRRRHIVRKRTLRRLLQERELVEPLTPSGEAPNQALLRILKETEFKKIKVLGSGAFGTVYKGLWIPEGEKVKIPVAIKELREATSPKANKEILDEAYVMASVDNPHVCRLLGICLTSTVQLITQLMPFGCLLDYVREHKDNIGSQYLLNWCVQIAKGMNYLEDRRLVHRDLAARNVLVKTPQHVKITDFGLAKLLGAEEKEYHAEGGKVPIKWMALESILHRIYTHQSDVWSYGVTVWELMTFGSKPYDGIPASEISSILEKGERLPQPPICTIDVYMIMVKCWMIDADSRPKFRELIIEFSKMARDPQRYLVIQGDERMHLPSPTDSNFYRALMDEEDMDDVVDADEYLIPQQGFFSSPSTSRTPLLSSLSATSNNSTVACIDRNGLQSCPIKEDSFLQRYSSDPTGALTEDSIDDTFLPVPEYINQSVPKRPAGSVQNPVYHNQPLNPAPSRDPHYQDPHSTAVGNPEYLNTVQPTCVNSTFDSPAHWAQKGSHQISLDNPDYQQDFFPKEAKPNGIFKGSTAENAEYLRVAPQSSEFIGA
Procedure: as §1, §2, §3, §4, §5, §6

MEK1 = biological target: T11, MEK1 (Homo sapiens, UniProt Q02750); test: Kinase panel (KinaseProfiler); type: biochemical; conditions: MEK1, 10μM
T11 construct: purchased Eurofins Pharma Discovery Services (KinaseProfiler)
Procedure: as §1, §2, §3, §4, §5, §6

CRAF = biological target: T12, CRAF (Homo sapiens, UniProt P04049); test: Kinase panel (KinaseProfiler); type: biochemical; conditions: 10μM
T12 construct: purchased Eurofins Pharma Discovery Services (KinaseProfiler)
T12 sequence (P04049 whole entry): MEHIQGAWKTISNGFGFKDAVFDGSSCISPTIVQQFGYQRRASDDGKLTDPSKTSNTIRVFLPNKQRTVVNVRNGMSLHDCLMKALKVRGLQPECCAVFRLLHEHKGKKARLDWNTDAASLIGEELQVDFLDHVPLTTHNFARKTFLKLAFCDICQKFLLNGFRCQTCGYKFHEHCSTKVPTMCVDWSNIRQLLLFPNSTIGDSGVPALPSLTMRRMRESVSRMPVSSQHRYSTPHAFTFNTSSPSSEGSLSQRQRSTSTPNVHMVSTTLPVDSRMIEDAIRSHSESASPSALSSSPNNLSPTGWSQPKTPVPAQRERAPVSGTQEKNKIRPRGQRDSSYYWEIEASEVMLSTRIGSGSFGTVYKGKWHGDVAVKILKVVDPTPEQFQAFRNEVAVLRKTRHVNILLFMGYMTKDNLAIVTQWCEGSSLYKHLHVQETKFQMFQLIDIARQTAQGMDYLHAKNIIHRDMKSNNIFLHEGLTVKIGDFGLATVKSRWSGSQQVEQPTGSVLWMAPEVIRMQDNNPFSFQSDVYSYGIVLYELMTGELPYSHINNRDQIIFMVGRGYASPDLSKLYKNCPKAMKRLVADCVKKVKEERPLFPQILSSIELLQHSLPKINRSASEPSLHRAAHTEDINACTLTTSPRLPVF
Procedure: as §1, §2, §3, §4, §5, §6

[1] = Caco-2 cell permeability assay; type: in vitro ADME; conditions: human

Row | binding to KRAS-GDP (waterLOGSY) (KRAS-GDP) | % kinase activity in the presence of Abd-7 (PDK1) | % kinase activity in the presence of Abd-7 (BRAF) | % kinase activity in the presence of Abd-7 (mTOR) | % kinase activity in the presence of Abd-7 (PKBα) | % kinase activity in the presence of Abd-7 (MAPK1) | % kinase activity in the presence of Abd-7 (PKBγ) | % kinase activity in the presence of Abd-7 (MAPK2) | % kinase activity in the presence of Abd-7 (MEK2) | % kinase activity in the presence of Abd-7 (PKBβ) | % kinase activity in the presence of Abd-7 (EGFR) | % kinase activity in the presence of Abd-7 (MEK1) | % kinase activity in the presence of Abd-7 (CRAF) | Papp A→B [1] | Papp B→A [1] | SMILES
1 | poor binding |  |  |  |  |  |  |  |  |  |  |  |  |  |  | O=C(NCC1COc2ccccc2O1)c1ccco1 (stereo not drawn) [Abd-2]
2 |  | 107% | 104% | 89% | 91% | 126% | 103% | 111% | 101% | 93% | 93% | 105% | 101% | 7.03 ×10⁻⁶ cm/s | 8.46 ×10⁻⁶ cm/s | COc1nc(-c2cccc3c2OCCO3)ccc1Nc1ccc(CN(C)C)cc1 [Abd-7]
